Patent publication US8962673B2, “Use of melatonin for treating and/or preventing mucositis” (Universidad de Granada, priority 2011, dated 2015)
Entries after “also recorded” stand apart in the source; their conditions may differ.

What was measured:
glutathione = assay: Glutathione levels (GSH, GSSG, GSSG/GSH) in tongue mitochondria of irradiated rats; assay type: in vivo, rat; conditions: i.p. 45 mg a day for 21 days, compared with 3% gel topical
Description: (§1) For topical administration in the oral cavity, the composition used was a hydrogel (gel) that comprised 1%, 3% or 5% melatonin (1, 3 or 5 grams of melatonin in 100 ml of the final volume of the composition, respectively) and in which 20% polyethylene and polypropylene copolymers were used as a gelling substance. Pluronic® F127 (poloxamer) was used as the polyethylene and polypropylene copolymers. 0.3% sodium benzoate was used as a preservative. 0.5% sweet orange essence was used. All the components used were acquired from FAGRON IBERICA, S.A.U., reference numbers: melatonin, 33457-27; Pluronic® F127, 33353-SP; sodium benzoate, 31360-12; orange essence, 30620-08. The chemical structure of melatonin is shown below: […]
(§2) […]

[1] = tested on: glutathione peroxidase (GPx); assay: Activity and expression of glutathione peroxidase in rat tongue mitochondria; assay type: in vivo; conditions: irradiated rats
Description: as §1, §2

[2] = tested on: glutathione reductase (GRd); assay: Activity and expression of glutathione reductase in rat tongue mitochondria; assay type: in vivo; conditions: irradiated rats; i.p. 45 mg a day for 21 days
Description: as §1, §2

[3] = tested on: mucositis caused by radiotherapy; assay: Macroscopic appearance of rat tongue / mucositis after irradiation; assay type: in vivo; conditions: irradiated rats
Description: For topical administration in the oral cavity, the composition used was a hydrogel (gel) that comprised 1%, 3% or 5% melatonin (1, 3 or 5 grams of melatonin in 100 ml of the final volume of the composition, respectively) and in which 20% polyethylene and polypropylene copolymers were used as a gelling substance. Pluronic® F127 (poloxamer) was used as the polyethylene and polypropylene copolymers. 0.3% sodium benzoate was used as a preservative. 0.5% sweet orange essence was used. All the components used were acquired from FAGRON IBERICA, S.A.U., reference numbers: melatonin, 33457-27; Pluronic® F127, 33353-SP; sodium benzoate, 31360-12; orange essence, 30620-08. The chemical structure of melatonin is shown below:
(§3) The animals used in experiments were rats weighing 280 g, and they were subjected to ionizing radiations under controlled conditions in the Experimental Radiology Unit at the Biomedical Research Center in the University of Granada. The animals were subjected to full exposure of 50 grays (Gy). The irradiation dose used each day was 10 Gy administered at 100.75 cGy/min, 210 kilovolts (kV) and 12 milliamperes (mA), and placing the animal 40 cm away from the radiation source.
The different formulations were applied to the animals as follows. A topical application was applied in the oral cavity before irradiation, another one after, and successive applications were applied every 8 hours for 21 days. […] The formulations used in the animals used in experiments were as follows: Pluronic F-127 gel with 1%, 3% or 5% melatonin (1, 3 or 5 grams of melatonin/100 ml gel, respectively), applied three times a day topically in the oral cavity at a volume of 500 μl/each time, giving a total of 1.5 ml/day. Topical application in the oral cavity means that the animals ingest the gel applied in the buccal cavity.
The experiments were also conducted by administering to the animals the same melatonin concentration as that used with the 3% w/v hydrogel, but by intraperitoneal route, to see if plasma melatonin could reduce mucositis or if it is necessary to apply said molecule by topical route. For the parenteral route, an isotonic solution that comprised 70% v/v (volume/volume) of isotonic saline solution and 30% v/v of propylene glycol, measured in relation to the total volume of the solution, was used. A daily dose of 45 mg of melatonin was injected for 21 days. The animals were sacrificed 21 days after starting irradiation, like the animals treated with melatonin gel applied by topical route in the oral cavity.

[4] = tested on: mitochondrial respiratory chain complexes CI, CIII, CIV and CV; assay: Expression of mitochondrial respiratory chain complexes in rat tongue by Western blot; assay type: in vivo; conditions: irradiated rats; i.p. 45 mg a day for 21 days
Source text: as §3
(§4) The different formulations were applied to the animals as follows. A topical application was applied in the oral cavity before irradiation, another one after, and successive applications were applied every 8 hours for 21 days. […]
as §2

[5] = Melatonin levels in rat tongue mitochondria; assay type: in vivo; conditions: irradiated rats; parenteral (i.p.) 45 mg a day
Source text: as §3, §4, §2

[6] = tested on: fibrosis and angiogenesis between the muscle fibers of the tongue; assay: Histology of rat tongue (hematoxylin-eosin, Masson Goldner's trichrome); assay type: in vivo; conditions: irradiated rats treated with melatonin (both treatments: 3% gel topical and parenteral) versus irradiated animals
Source text: as §3, §4, §2

mitochondria = assay: Electron microscopy of rat tongue mitochondria; assay type: in vivo; conditions: irradiated rats; parenteral route
Source text: as §3, §4, §2

[7] = in vivo; cited from earlier work

COc1ccc2[nH]cc(CCNC(C)=O)c2c1 [melatonin, N-acetyl-5-methoxytryptamine]
GSSG/GSH ratio in tongue mitochondria (glutathione): higher GSSG/GSH ratio
restoring GSH and reducing GSSG in tongue mitochondria (glutathione): lower efficacy
activity and expression of GPx ([1]; 3% w/v gel topical in the oral cavity, 45 mg a day): partially counteract the effect of irradiation
activity and expression of GPx ([1]; i.p. 45 mg a day for 21 days): partially counteract the effect of irradiation
activity and expression of GRd [2]: unable to restore the enzyme
minimum effective dose for treating mucositis, daily dose ([3]; 3% gel applied three times a day, 500 μl in each application): 45 mg
macroscopic tongue lesions (morphological appearance of the tongue) ([3]; 3% w/v gel, topical application in the oral cavity): completely normalizes the morphological appearance of the tongue
minimum effective dose for treating mucositis, melatonin concentration in the gel ([3]; gel applied three times a day, 500 μl in each application): 3%
mucositis caused by radiotherapy (macroscopic tongue lesions) ([3]; gel topical in the oral cavity, three times a day, 21 days): complete prevention of mucositis
macroscopic tongue lesions / mucositis ([3]; parenteral (i.p.) 45 mg a day for 21 days): unable to restore tongue lesions after irradiation; also recorded: no benefit whatsoever
expression of complex V or ATP synthase [4]: completely unable to restore the expression of complex V
melatonin levels in the tongue [5]: not restored
fibrosis and angiogenesis between the muscle fibers of the tongue [6]: decrease in fibrosis and in angiogenesis
mitochondrial damage by electron microscopy (broken mitochondria) (mitochondria): broken mitochondria are observed
half-life [7]: 30 min
